Structures are written as SMILES.

Sequence of human DGAT2 (hDGAT2) (Q96PD7 whole entry): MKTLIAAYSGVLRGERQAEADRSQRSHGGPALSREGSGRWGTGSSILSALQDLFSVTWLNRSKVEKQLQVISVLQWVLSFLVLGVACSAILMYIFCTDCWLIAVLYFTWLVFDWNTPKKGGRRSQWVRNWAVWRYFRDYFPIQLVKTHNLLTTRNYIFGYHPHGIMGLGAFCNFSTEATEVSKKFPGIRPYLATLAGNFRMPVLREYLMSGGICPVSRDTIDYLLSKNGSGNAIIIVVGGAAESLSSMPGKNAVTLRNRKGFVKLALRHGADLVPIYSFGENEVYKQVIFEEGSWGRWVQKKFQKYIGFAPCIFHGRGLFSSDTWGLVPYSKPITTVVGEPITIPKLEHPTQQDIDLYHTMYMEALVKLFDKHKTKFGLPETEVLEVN

The experiment concerns the target human DGAT2 (hDGAT2) (Homo sapiens (Human), UniProt Q96PD7). As to the kind of experiment: DGAT2 enzymatic activity assay (triolein formation, LC/MS/MS). As to conditions: Sf-9 membrane prep expressing hDGAT2; 25 μM diolein, 10 μM oleoyl-CoA; triolein by LC/MS/MS. In kind it is biochemical. A digest of the protocol: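 Membranes from Sf-9 cells infected with untagged baculovirus hDGAT2 were incubated at rt in 100 mM Tris.Cl pH 7.0, 20 mM MgCl2, 5% ethanol with 25 μM diolein and 10 μM oleoyl-CoA (10 ng/μL membrane). Triolein was quantified by LC/MS/MS against internal standard; IC50 by 4-parameter sigmoidal fit.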
The term IC50 denotes the concentration needed to halve the response being measured. In turn, `O=C(NC1CCS(=O)(=O)C1)c1ccc2c(-c3ccc(OC(F)F)cc3)cn(-c3ccc(F)cc3)c2c1` (racemic) [Example 57, 3-[4-(difluoromethoxy)phenyl]-N-(1,1-dioxidotetrahydrothiophen-3-yl)-1-(4-fluorophenyl)-1H-indole-6-carboxamide (racemic)] registered an IC50 of 562 nM. That is a sub-micromolar value.

In turn, `COC(=O)c1cc(-c2cn(-c3ccc(F)cc3)c3cc(C(=O)NC4CCS(=O)(=O)C4)ccc23)cs1` (racemic) [Example 60, methyl 4-{6-[(1,1-dioxidotetrahydrothiophen-3-yl)carbamoyl]-1-(4-fluorophenyl)-1H-indol-3-yl}thiophene-2-carboxylate (racemic)] came in with an IC50 of 175 nM.

`O=C(NC1CCS(=O)(=O)C1)c1ccc2c(-c3ccccn3)cn(-c3ccc(F)cc3)c2c1` (racemic) [Example 22, N-(1,1-dioxidotetrahydrothiophen-3-yl)-1-(4-fluorophenyl)-3-(pyridin-2-yl)-1H-indole-6-carboxamide (racemic)] gave an IC50 of 664 nM.

With `CC1(NC(=O)c2ccc3c(-c4ccccc4Cl)cn(-c4ccc(F)cc4)c3c2)CCS(=O)(=O)C1` (racemic) [Example 1, 3-(2-chlorophenyl)-1-(4-fluorophenyl)-N-(3-methyl-1,1-dioxidotetrahydrothiophen-3-yl)-1H-indole-6-carboxamide], the IC50 is 8.8 nM.

Compound `O=C(NC1CCS(=O)(=O)C1)c1ccc2c(-c3cccc(-c4ccccc4)c3)cn(-c3ccc(F)cc3)c2c1` (racemic) [Example 36, 3-biphenyl-3-yl-N-(1,1-dioxidotetrahydrothiophen-3-yl)-1-(4-fluorophenyl)-1H-indole-6-carboxamide (racemic)] had an IC50 of 61 nM.

On to `O=C(NC1CCS(=O)(=O)C1)c1ccc2c(-c3cccc(C4CC4)c3)cn(-c3ccc(F)cc3)c2c1` (racemic) [Example 46, 3-(3-cyclopropylphenyl)-N-(1,1-dioxidotetrahydrothiophen-3-yl)-1-(4-fluorophenyl)-1H-indole-6-carboxamide (racemic)], for which the IC50 was found to be 2.1 nM.

Take `Cc1noc(C)c1-c1cn(-c2ccc(F)cc2)c2cc(C(=O)NC3CCS(=O)(=O)C3)ccc12` (racemic) [Example 53, 3-(3,5-dimethylisoxazol-4-yl)-N-(1,1-dioxidotetrahydrothiophen-3-yl)-1-(4-fluorophenyl)-1H-indole-6-carboxamide (racemic)]: 502 nM corresponded to half-maximal inhibition (IC50).

In the case of `O=C(NC1CCS(=O)(=O)C1)c1ccc2c(-c3ccccc3)cn(-c3ccc(F)cc3)c2c1` (racemic) [Example 43, N-(1,1-dioxidotetrahydrothiophen-3-yl)-1-(4-fluorophenyl)-3-phenyl-1H-indole-6-carboxamide (racemic)], the midpoint of inhibition, the IC50, lay at 55 nM.

These data come from patent publication US10947222B2, “Indole derivatives useful as inhibitors of diacylglyceride O-acyltransferase 2” (Merck Sharp & Dohme Corp., priority 2016, dated 2021).
